# Experimental data published in US6603023B2 (priority 1996, dated 2003).
# Where two headings read alike, the source gives them in different places.
# Assays:
# [1] = system: CCRF-CEM human T-cell acute lymphoblastic leukemia cell line; test: XTT cytotoxicity (cell growth inhibition), CCRF-CEM; settings: Homo sapiens, CCRF-CEM
# Outline: (§1)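 Suspension leukemic cells (CCRF-CEM, P388 and drug-resistant sublines kept under the selecting agent) were seeded at 5×10^4 cells/mL in RPMI-1640 with 10% FBS at 37 °C. After 72 h drug exposure in duplicate, PMS-XTT was added for 4 h. Absorbance was read at 450 and 630 nm.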
# murine leukemic P388/0 = test: XTT cytotoxicity, P388/0; assay type: cell-based; settings: Mus musculus, P388, 72 h
# Outline: as §1
# [2] = system: human neuroblastoma SK-N-As; test: SRB cytotoxicity, SK-N-As; assay type: cell-based; settings: Homo sapiens, SK-N-AS, 72 h
# Outline: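 Monolayer cultures grown in RPMI 1640-10% FBS at 37 °C, 5% CO2, with resistant sublines kept under their selecting agent. Cytotoxicity determined by SRB protein staining (TCA fixation, absorbance 570 nm) in duplicate at six to seven drug concentrations. ED50 obtained by median-effect plot analysis.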
# Human CCRF-CEM Xenograft = test: CCRF-CEM xenograft in scid mice; assay type: in vivo, CB-17 scid mice
# [3] = system: Human CCRF-CEM/VBL Xenograft; test: CCRF-CEM/VBL xenograft in scid mice; assay type: in vivo, CB-17 scid mice
# B16 Melanoma = assay type: in vivo, B6D2F1 mice; settings: B6D2F1, mouse, in vivo
# Protocol: Body weight was determined at 0, 2, 4, 6, 8, 10 and 12 days. […] Injections were started on day 1. […] Body weight was determined at 0, 2, 4, 6, 8, 10 and 12 days. […] Injections were started on day 1.
# [4] = system: PC-3 Human Prostate Carcinoma; test: PC-3 xenograft; assay type: in vivo, nude mice; settings: for Average Body Weight, Day 5: initial weight
# [5] = system: A549 Human Lung Carcinoma; test: A549 xenograft; assay type: in vivo, nude mice; settings: for Average Tumor Size, Day 11: control 96; for Average Tumor Size, Day 13: control 128; for Average Tumor Size, Day 15: control 306; for Average Tumor Size, Day 17: control 553; for Average Body Weight, Day 7: initial weight
# [6] = dose 2.0 i.p. QD d7-10,14,15, day 7
# [7] = dose 2.0 i.p. QD d7-10,14,15, day 12
# [8] = dose 2.0 i.p. QD d7-10,14,15, day 17
# [9] = dose 2.0 i.p. QD d7-10,14,15, day 22
# [10] = dose 4.0 i.p. QD d7-10,14,15, day 7
# [11] = dose 4.0 i.p. QD d7-10,14,15, day 12
# [12] = dose 4.0 i.p. QD d7-10,14,15, day 17
# [13] = dose 4.0 i.p. QD d7-10,14,15, day 22
# [14] = 6 hr i.v. infusion: dEpoB 40, Taxol 24 mg/kg
# [15] = PC-3 Prostate, dEpoB 40 mg/kg Q2D x 3, Taxol 15 mg/kg Q2D x 3
# [16] = dEpoB 30 mg/kg 18 hr i.v. infusion, Taxol 16 mg/kg 6 hr infusion, VBL 2 and VP-16 25 mg/kg i.v. inj
# [17] = A549 Lung, dEpoB 40 mg/kg Q2D x 3, Taxol 15 mg/kg Q2D x 3
# [18] = Q2D x 3, 6 hr i.v. infusion: dEpoB 40, Taxol 24 mg/kg
# [19] = Q2D x 3: dEpoB 30 mg/kg 18 hr i.v. infusion, Taxol 15 mg/kg 6 hr infusion, VBL 2 and VP-16 25 mg/kg i.v. inj
structure (smiles),measurement,setting,value
"CC(=O)O[C@H]1C(=O)[C@@]2(C)[C@H]([C@H](OC(=O)c3ccccc3)[C@]3(O)C[C@H](OC(=O)[C@H](O)[C@@H](NC(=O)c4ccccc4)c4ccccc4)C(C)=C1C3(C)C)[C@]1(OC(C)=O)CO[C@@H]1C[C@@H]2O [Taxol ®, paclitaxel]",IC50,[1],2.1 nM
same,IC50,"[1]; 72 h, Table 1A, XTT",2.1 nM
same,IC50,"[1]; Table 1, XTT",2 nM
same,IC50,[1]; Table 2,2.3 nM
same,IC50,"[1]; Table 5, single determinations",2.1 nM
same,IC50,"[1]; read-out: IC50 (A), Table 2A, parent cell line",2.3 nM
same,IC50,murine leukemic P388/0,2.9 nM
same,IC50,[2],1.6 nM
same,Average weight change,Human CCRF-CEM Xenograft; [6],−0.1
same,Average tumor volume (control = 1.00),Human CCRF-CEM Xenograft; [7],0.39
same,Average weight change,Human CCRF-CEM Xenograft; [7],−1.1
same,Average tumor volume (control = 1.00),Human CCRF-CEM Xenograft; [8],0.29
same,Average weight change,Human CCRF-CEM Xenograft; [8],−1.5
same,Average tumor volume (control = 1.00),Human CCRF-CEM Xenograft; [9],0.28
same,Average weight change,Human CCRF-CEM Xenograft; [9],−0.3
same,Average weight change,Human CCRF-CEM Xenograft; [10],−0.2
same,Average tumor volume (control = 1.00),Human CCRF-CEM Xenograft; [11],0.37
same,Average weight change,Human CCRF-CEM Xenograft; [11],−1.7
same,Average tumor volume (control = 1.00),Human CCRF-CEM Xenograft; [12],0.23
same,Average weight change,Human CCRF-CEM Xenograft; [12],−1.9
same,Average tumor volume (control = 1.00),Human CCRF-CEM Xenograft; [13],0.19
same,Average weight change,Human CCRF-CEM Xenograft; [13],−0.3
same,Average weight change,[3]; [6],0
same,Average tumor volume (control = 1.00),[3]; [7],0.60
same,Average weight change,[3]; [7],−0.9
same,Average tumor volume (control = 1.00),[3]; [8],0.58
same,Average weight change,[3]; [8],−1.5
same,Average tumor volume (control = 1.00),[3]; [9],0.70
same,Average weight change,[3]; [9],−0.1
same,Average weight change,[3]; [10],0
same,Average tumor volume (control = 1.00),[3]; [11],0.79
same,Average weight change,[3]; [11],−1.4
same,Average tumor volume (control = 1.00),[3]; [12],0.55
same,Average weight change,[3]; [12],−1.6
same,Average tumor volume (control = 1.00),[3]; [13],0.41
same,Average weight change,[3]; [13],−0.9
same,# Mice Died,B16 Melanoma,0/8
same,"Average Body Weight (change), Day 9",[4]; [14],-2.2 g
same,"Average Body Weight (change), Day 11",[4]; [14],-2.8 g
same,"Average Body Weight (change), Day 13",[4]; [14],-0.8 g
same,"Average Tumor Size (TC), Day 9",[4]; [14],0.18 TC
same,"Average Tumor Size (TC), Day 11",[4]; [14],0.05 TC
same,"Average Tumor Size (TC), Day 13",[4]; [14],0.06 TC
same,Tumor Disappearance,[4]; [14],2/4
same,Lowest Average Tumor Size (T/C),[4]; [15],0.02 T/C
same,Tumor Disappearance,[4]; [15],0
same,"Average Body Weight (change), Day 9",[4]; [16],-1.1 g
same,"Average Body Weight (change), Day 11",[4]; [16],-0.9 g
same,"Average Body Weight (change), Day 13",[4]; [16],+0.4 g
same,"Average Tumor Size (TC), Day 9",[4]; [16],0.34 TC
same,"Average Tumor Size (TC), Day 11",[4]; [16],0.09 TC
same,"Average Tumor Size (TC), Day 13",[4]; [16],0.02 TC
same,Tumor Disappearance,[4]; [16],0/4
same,"Average Body Weight, Day 5",[4]; [14],28.8 g
same,"Average Body Weight, Day 5",[4]; [16],26.6 g
same,Lowest Average Tumor Size (T/C),[5]; [17],0.01 T/C
same,Tumor Disappearance,[5]; [17],2/4
same,"Average Body Weight (change), Day 11",[5]; [18],-2.1 g
same,"Average Body Weight (change), Day 13",[5]; [18],-2.7 g
same,"Average Body Weight (change), Day 15",[5]; [18],-0.9 g
same,Tumor Disappearance,[5]; [18],4/4
same,"Average Tumor Size, Day 11",[5]; [18],14 mm^3
same,"Average Tumor Size, Day 13",[5]; [18],8 mm^3
same,"Average Tumor Size, Day 15",[5]; [18],0 mm^3
same,"Average Tumor Size, Day 17",[5]; [18],0 mm^3
same,"Average Body Weight (change), Day 11",[5]; [19],-1.2 g
same,"Average Body Weight (change), Day 13",[5]; [19],-0.8 g
same,"Average Body Weight (change), Day 15",[5]; [19],+0.5 g
same,Tumor Disappearance,[5]; [19],2/4
same,"Average Tumor Size, Day 11",[5]; [19],49 mm^3
same,"Average Tumor Size, Day 13",[5]; [19],32 mm^3
same,"Average Tumor Size, Day 15",[5]; [19],7 mm^3
same,"Average Tumor Size, Day 17",[5]; [19],6 mm^3
same,"Average Body Weight, Day 7",[5]; [18],28.5 g
same,"Average Body Weight, Day 7",[5]; [19],27.6 g
